Measurements reported in patent publication US20240376121A1, “COMPOUNDS AND USES THEREOF” (Foghorn Therapeutics Inc., priority 2021, published 2024).

Columns and labels:
[1] = molecular target: T1, HiBit-BRG1 fusion protein (Homo sapiens, UniProt P51532); assay: HiBiT-BRG1 cell-based degradation assay (Nano-Glo HiBiT Lytic Detection); details: stable HeLa cell line expressing HiBit-BRG1 and LgBit, 24 h incubation; for Dmax: top dose 30 μM, read-out: BRG1 HiBit Degradation Maximum (%); for DC50: read-out: BRMG1 HiBit Degradation IC50
T1 construct: expressed in transfected cells
T1 sequence (P51532 whole entry, the tested form may be a part): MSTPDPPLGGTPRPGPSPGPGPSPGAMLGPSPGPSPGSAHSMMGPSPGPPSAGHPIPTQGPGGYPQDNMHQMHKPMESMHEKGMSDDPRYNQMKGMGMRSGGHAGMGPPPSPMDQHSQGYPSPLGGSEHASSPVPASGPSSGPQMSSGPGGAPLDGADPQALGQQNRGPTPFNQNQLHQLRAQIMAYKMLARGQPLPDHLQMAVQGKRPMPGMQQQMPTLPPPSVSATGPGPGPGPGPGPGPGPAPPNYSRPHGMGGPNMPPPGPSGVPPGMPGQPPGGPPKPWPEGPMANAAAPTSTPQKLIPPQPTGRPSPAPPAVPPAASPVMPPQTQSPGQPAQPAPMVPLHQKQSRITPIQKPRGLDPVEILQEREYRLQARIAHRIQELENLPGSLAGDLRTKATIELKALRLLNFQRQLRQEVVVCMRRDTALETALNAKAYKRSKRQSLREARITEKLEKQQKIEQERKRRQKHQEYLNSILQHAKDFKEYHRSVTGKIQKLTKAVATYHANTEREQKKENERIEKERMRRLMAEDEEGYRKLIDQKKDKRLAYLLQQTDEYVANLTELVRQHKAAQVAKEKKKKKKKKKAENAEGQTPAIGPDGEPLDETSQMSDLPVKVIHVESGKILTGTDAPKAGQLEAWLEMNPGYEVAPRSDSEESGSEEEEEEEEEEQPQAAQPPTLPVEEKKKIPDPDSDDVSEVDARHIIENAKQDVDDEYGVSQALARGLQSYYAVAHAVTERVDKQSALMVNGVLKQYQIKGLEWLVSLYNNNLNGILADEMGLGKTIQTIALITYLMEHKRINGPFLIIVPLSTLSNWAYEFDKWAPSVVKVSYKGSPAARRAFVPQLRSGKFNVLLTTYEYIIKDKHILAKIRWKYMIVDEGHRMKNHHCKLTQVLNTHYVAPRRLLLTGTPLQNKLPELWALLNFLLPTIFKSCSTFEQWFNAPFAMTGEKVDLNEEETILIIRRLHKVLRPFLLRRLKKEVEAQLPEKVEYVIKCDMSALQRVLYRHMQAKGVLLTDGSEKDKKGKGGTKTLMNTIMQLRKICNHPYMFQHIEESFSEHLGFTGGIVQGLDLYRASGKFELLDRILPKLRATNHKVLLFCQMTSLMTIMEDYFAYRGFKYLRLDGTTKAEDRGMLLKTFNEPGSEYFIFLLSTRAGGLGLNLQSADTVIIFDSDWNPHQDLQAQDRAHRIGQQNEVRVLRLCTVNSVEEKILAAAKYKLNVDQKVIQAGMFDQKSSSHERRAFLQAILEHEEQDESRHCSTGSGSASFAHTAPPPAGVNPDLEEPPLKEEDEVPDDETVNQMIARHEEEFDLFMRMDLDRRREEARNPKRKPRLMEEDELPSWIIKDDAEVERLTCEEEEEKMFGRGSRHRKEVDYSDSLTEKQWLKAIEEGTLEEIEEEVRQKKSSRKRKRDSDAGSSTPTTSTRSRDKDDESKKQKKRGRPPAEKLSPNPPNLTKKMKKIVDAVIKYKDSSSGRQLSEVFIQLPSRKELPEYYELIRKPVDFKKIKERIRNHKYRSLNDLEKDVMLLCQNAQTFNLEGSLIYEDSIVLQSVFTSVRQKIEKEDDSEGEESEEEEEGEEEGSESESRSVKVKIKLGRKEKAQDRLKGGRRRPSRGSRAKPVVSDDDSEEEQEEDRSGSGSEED
Method: (§1) Procedure: A stable HeLa cell line expressing HiBiT-BRM was generated. On day 0, 5000 cells were seeded in 40 μL of media into each well of 384-well cell culture plates. On day 1, cells were treated with 120 nL DMSO or 120 nL of 3-fold serially DMSO-diluted compounds (10 points in duplicate with 30 μM as final top dose). Subsequently plates were incubated for 24 h in a standard tissue culture incubator and equilibrated at room temperature for 15 minutes. Nano-Glo HiBiT Lytic Detection System (Promega N3050) reagent was freshly prepared and 20 ul was added to each well. Upon addition of this LgBit-containing reagent, the HiBiT and LgBiT proteins associate to form the luminescent NanoBiT luciferase. The plates were shaken for 10 minutes at room temperature and the bioluminescence read using an EnVision plate reader (PerkinElmer).
For measurement of BRG1 degradation, a stable HeLa cell line expressing HiBit-BRG1 and LgBit was generated. The same protocol as above was then followed.
(§2) The degradation % was calculated using the following formula: % degradation=100%−100%×(LumSample−LumLC)/(LumHC−LumLC). DMSO treated cells are employed as High Control (HC) and 2 μM of a known BRM/BRG1 degrader standard treated cells are employed as Low Control (LC).

HiBit-BRM fusion protein = molecular target: T2, HiBit-BRM fusion protein (Homo sapiens, UniProt P51531); assay: HiBiT-BRM cell-based degradation assay (Nano-Glo HiBiT Lytic Detection); details: stable HeLa cell line expressing HiBiT-BRM, 24 h incubation; for BRM HiBit Degradation Maximum (%): top dose 30 μM; for DC50: read-out: BRM HiBit Degradation IC50
T2 construct: expressed in transfected cells
T2 sequence (P51531 whole entry, the tested form may be a part): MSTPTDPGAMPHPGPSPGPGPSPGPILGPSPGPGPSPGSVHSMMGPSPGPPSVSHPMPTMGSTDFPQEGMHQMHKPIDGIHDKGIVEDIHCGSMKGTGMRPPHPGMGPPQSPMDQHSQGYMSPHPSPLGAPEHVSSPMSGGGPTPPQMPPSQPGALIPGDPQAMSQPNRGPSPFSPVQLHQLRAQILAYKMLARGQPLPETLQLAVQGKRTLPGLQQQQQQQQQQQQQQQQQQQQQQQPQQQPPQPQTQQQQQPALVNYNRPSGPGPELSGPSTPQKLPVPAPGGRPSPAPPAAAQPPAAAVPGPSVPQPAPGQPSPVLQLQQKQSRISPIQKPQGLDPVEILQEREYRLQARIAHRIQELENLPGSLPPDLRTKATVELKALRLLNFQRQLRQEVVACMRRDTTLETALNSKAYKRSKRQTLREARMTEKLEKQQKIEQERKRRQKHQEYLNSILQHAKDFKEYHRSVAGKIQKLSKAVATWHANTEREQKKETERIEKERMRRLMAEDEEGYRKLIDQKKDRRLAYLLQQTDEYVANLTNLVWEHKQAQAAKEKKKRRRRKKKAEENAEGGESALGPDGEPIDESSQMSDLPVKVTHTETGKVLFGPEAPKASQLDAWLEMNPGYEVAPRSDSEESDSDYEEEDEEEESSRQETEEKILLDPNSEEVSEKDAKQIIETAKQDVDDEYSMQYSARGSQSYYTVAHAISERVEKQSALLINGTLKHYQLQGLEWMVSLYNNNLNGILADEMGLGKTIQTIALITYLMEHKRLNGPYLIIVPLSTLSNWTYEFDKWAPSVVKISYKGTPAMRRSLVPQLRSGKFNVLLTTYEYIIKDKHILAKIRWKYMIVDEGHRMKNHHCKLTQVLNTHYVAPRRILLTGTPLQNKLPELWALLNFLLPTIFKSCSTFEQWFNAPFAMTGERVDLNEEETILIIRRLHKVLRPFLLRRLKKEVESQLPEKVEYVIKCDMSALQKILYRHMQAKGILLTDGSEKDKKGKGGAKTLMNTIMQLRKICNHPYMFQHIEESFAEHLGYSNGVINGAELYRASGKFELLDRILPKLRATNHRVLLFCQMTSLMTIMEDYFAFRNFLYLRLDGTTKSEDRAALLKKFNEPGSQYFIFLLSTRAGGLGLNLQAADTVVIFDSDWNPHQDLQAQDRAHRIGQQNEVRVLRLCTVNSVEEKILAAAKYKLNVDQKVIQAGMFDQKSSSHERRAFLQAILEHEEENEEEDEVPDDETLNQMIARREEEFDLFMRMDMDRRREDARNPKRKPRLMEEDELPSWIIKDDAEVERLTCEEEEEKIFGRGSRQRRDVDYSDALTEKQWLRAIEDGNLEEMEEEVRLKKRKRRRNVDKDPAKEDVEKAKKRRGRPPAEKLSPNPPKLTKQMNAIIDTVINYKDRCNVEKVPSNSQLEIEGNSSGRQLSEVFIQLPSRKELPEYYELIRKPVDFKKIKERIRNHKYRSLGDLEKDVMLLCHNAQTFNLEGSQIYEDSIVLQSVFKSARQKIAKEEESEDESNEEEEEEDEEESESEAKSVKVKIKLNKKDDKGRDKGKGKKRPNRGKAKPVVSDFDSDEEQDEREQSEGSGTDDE
Method: as §1, §2

SMILES: Cc1ncsc1-c1ccc([C@H](C)NC(=O)[C@@H]2C[C@@H](O)CN2C(=O)[C@@H](c2cc(OCCN3C[C@@H]4[C@H](C3)[C@H]4c3cc4cc(-c5ccccc5O)nnc4s3)no2)C(C)C)cc1 [Compound 32]
- Dmax [1]: < 50%
- DC50 [1]: ≥ 1000 nM
- BRM HiBit Degradation Maximum (%) (HiBit-BRM fusion protein): A (“A” indicates maximum degradation ≥ 75%)
- DC50 (HiBit-BRM fusion protein): ≥ 10 nM

SMILES: Cc1ncsc1-c1ccc([C@H](C)NC(=O)[C@@H]2C[C@@H](O)CN2C(=O)[C@H](c2cc(N3CCC(CN4CC(c5cc6cc(-c7ccccc7O)nnc6s5)C4)CC3)no2)C(C)C)cc1 [Compound 33]
- Dmax [1]: < 50%
- DC50 [1]: ≥ 1000 nM
- BRM HiBit Degradation Maximum (%) (HiBit-BRM fusion protein): C (“C” indicates maximum degradation < 50%)
- DC50 (HiBit-BRM fusion protein): ≥ 1000 nM

SMILES: Cc1ncsc1-c1ccc([C@H](C)NC(=O)[C@@H]2C[C@@H](O)CN2C(=O)[C@@H](c2cc(O[C@@H]3CC[C@@H]3N3CCC(c4sc5nnc(-c6ccccc6O)cc5c4C)CC3)no2)C(C)C)cc1 [Compound 35, (2S,4R)-4-hydroxy-1-[(2R)-2-{3-[(1R,2S)-2-{4-[3-(2-hydroxyphenyl)-5-methylthieno[2,3-c]pyridazin-6-yl]piperidin-1-yl}cyclobutoxy]-1,2-oxazol-5-yl}-3-methylbutanoyl]-N-[(1S)-1-[4-(4-methyl-1,3-thiazol-5-yl)phenyl]ethyl]pyrrolidine-2-carboxamide]
- Dmax [1]: < 50%
- DC50 [1]: ≥ 1000 nM
- BRM HiBit Degradation Maximum (%) (HiBit-BRM fusion protein): A (“A” indicates maximum degradation ≥ 75%)
- DC50 (HiBit-BRM fusion protein): ≥ 10 nM

SMILES: Cc1ncsc1-c1ccc([C@H](C)NC(=O)[C@@H]2C[C@@H](O)CN2C(=O)[C@@H](c2cc(O[C@H]3CC[C@@H]3N3CCC(c4sc5nnc(-c6ccccc6O)cc5c4C)CC3)no2)C(C)C)cc1 [Compound 36, (2S,4R)-4-hydroxy-1-[(2R)-2-{3-[(1S,2S)-2-{4-[3-(2-hydroxyphenyl)-5-methylthieno[2,3-c]pyridazin-6-yl]piperidin-1-yl}cyclobutoxy]-1,2-oxazol-5-yl}-3-methylbutanoyl]-N-[(1S)-1-[4-(4-methyl-1,3-thiazol-5-yl)phenyl]ethyl]pyrrolidine-2-carboxamide]
- Dmax [1]: < 50%
- DC50 [1]: ≥ 1000 nM
- BRM HiBit Degradation Maximum (%) (HiBit-BRM fusion protein): B (“B” indicates maximum degradation ≥ 50%)
- DC50 (HiBit-BRM fusion protein): ≥ 10 nM

SMILES: Cc1ncsc1-c1ccc([C@H](C)NC(=O)[C@@H]2C[C@@H](O)CN2C(=O)[C@@H](c2cc([C@H]3CC[C@@H](N4CCC(c5sc6nnc(-c7ccccc7O)cc6c5C)CC4)CC3)no2)C(C)C)cc1 [Compound 37, (2S,4R)-4-hydroxy-1-((R)-2-(3-((1s,4S)-4-(4-(3-(2-hydroxyphenyl)-5-methylthieno[2,3-c]pyridazin-6-yl)piperidin-1-yl)cyclohexyl)isoxazol-5-yl)-3-methylbutanoyl)-N-((S)-1-(4-(4-methylthiazol-5-yl)phenyl)ethyl)pyrrolidine-2-carboxamide]
- Dmax [1]: < 50%
- DC50 [1]: ≥ 1000 nM
- BRM HiBit Degradation Maximum (%) (HiBit-BRM fusion protein): A (“A” indicates maximum degradation ≥ 75%)
- DC50 (HiBit-BRM fusion protein): < 10 nM

SMILES: Cc1ncsc1-c1ccc([C@H](C)NC(=O)[C@@H]2C[C@@H](O)CN2C(=O)[C@@H](c2cc([C@H]3CC[C@H](N4CCC(c5sc6nnc(-c7ccccc7O)cc6c5C)CC4)CC3)no2)C(C)C)cc1 [Compound 38, (2S,4R)-4-hydroxy-1-((R)-2-(3-((1r,4R)-4-(4-(3-(2-hydroxyphenyl)-5-methylthieno[2,3-c]pyridazin-6-yl)piperidin-1-yl)cyclohexyl)isoxazol-5-yl)-3-methylbutanoyl)-N-((S)-1-(4-(4-methylthiazol-5-yl)phenyl)ethyl)pyrrolidine-2-carboxamide]
- Dmax [1]: < 50%
- DC50 [1]: ≥ 1000 nM
- BRM HiBit Degradation Maximum (%) (HiBit-BRM fusion protein): A (“A” indicates maximum degradation ≥ 75%)
- DC50 (HiBit-BRM fusion protein): ≥ 100 nM

SMILES: Cc1ncsc1-c1ccc([C@H](C)NC(=O)[C@@H]2C[C@@H](O)CN2C(=O)[C@@H](c2cc(OCCN[C@H]3CCc4sc5nnc(-c6ccccc6O)cc5c4C3)no2)C(C)C)cc1 [Compound 39, (2S,4R)-4-hydroxy-1-((R)-2-(3-(2-(((S)-3-(2-hydroxyphenyl)-5,6,7,8-tetrahydrobenzo[4,5]thieno[2,3-c]pyridazin-6-yl)amino)ethoxy)isoxazol-5-yl)-3-methylbutanoyl)-N—((S)-1-(4-(4-methylthiazol-5-yl)phenyl)ethyl)pyrrolidine-2-carboxamide]
- Dmax [1]: < 50%
- DC50 [1]: ≥ 1000 nM
- BRM HiBit Degradation Maximum (%) (HiBit-BRM fusion protein): C (“C” indicates maximum degradation < 50%)
- DC50 (HiBit-BRM fusion protein): ≥ 1000 nM

SMILES: Cc1ncsc1-c1ccc([C@H](C)NC(=O)[C@@H]2C[C@@H](O)CN2C(=O)[C@@H](c2cc(OCCN[C@@H]3CCc4sc5nnc(-c6ccccc6O)cc5c4C3)no2)C(C)C)cc1 [Compound 40, (2S,4R)-4-hydroxy-1-((R)-2-(3-(2-(((R)-3-(2-hydroxyphenyl)-5,6,7,8-tetrahydrobenzo[4,5]thieno[2,3-c]pyridazin-6-yl)amino)ethoxy)isoxazol-5-yl)-3-methylbutanoyl)-N—((S)-1-(4-(4-methylthiazol-5-yl)phenyl)ethyl)pyrrolidine-2-carboxamide]
- Dmax [1]: < 50%
- DC50 [1]: ≥ 1000 nM
- BRM HiBit Degradation Maximum (%) (HiBit-BRM fusion protein): C (“C” indicates maximum degradation < 50%)
- DC50 (HiBit-BRM fusion protein): ≥ 1000 nM

SMILES: Cc1ncsc1-c1ccc([C@H](C)NC(=O)[C@@H]2C[C@@H](O)CN2C(=O)[C@@H](c2cc(N3C[C@H]4C[C@@H]3CN4C(=O)[C@H]3CCc4sc5nnc(-c6ccccc6O)cc5c4C3)no2)C(C)C)cc1 [Compound 41, (2S,4R)-4-hydroxy-1-((R)-2-(3-((1R,4R)-5-((S)-3-(2-hydroxyphenyl)-5,6,7,8-tetrahydrobenzo[4,5]thieno[2,3-c]pyridazine-6-carbonyl)-2,5-diazabicyclo[2.2.1]heptan-2-yl)isoxazol-5-yl)-3-methylbutanoyl)-N—((S)-1-(4-(4-methylthiazol-5-yl)phenyl)ethyl)pyrrolidine-2-carboxamide]
- Dmax [1]: ≥ 50%
- DC50 [1]: ≥ 100 nM
- BRM HiBit Degradation Maximum (%) (HiBit-BRM fusion protein): A (“A” indicates maximum degradation ≥ 75%)
- DC50 (HiBit-BRM fusion protein): ≥ 10 nM

SMILES: Cc1ncsc1-c1ccc([C@H](C)NC(=O)[C@@H]2C[C@@H](O)CN2C(=O)[C@@H](c2cc(N3C[C@H]4C[C@@H]3CN4C(=O)[C@@H]3CCc4sc5nnc(-c6ccccc6O)cc5c4C3)no2)C(C)C)cc1 [Compound 42, (2S,4R)-4-hydroxy-1-((R)-2-(3-((1R,4R)-5-((R)-3-(2-hydroxyphenyl)-5,6,7,8-tetrahydrobenzo[4,5]thieno[2,3-c]pyridazine-6-carbonyl)-2,5-diazabicyclo[2.2.1]heptan-2-yl)isoxazol-5-yl)-3-methylbutanoyl)-N—((S)-1-(4-(4-methylthiazol-5-yl)phenyl)ethyl)pyrrolidine-2-carboxamide]
- Dmax [1]: < 50%
- DC50 [1]: ≥ 1000 nM
- BRM HiBit Degradation Maximum (%) (HiBit-BRM fusion protein): A (“A” indicates maximum degradation ≥ 75%)
- DC50 (HiBit-BRM fusion protein): ≥ 100 nM

SMILES: Cc1ncsc1-c1ccc([C@H](C)NC(=O)[C@@H]2C[C@@H](O)CN2C(=O)[C@@H](c2cc(N3C[C@@H]4C[C@H]3CN4C(=O)[C@H]3CCc4sc5nnc(-c6ccccc6O)cc5c4C3)no2)C(C)C)cc1 [Compound 43, (2S,4R)-4-hydroxy-1-((R)-2-(3-((1S,4S)-5-((S)-3-(2-hydroxyphenyl)-5,6,7,8-tetrahydrobenzo[4,5]thieno[2,3-c]pyridazine-6-carbonyl)-2,5-diazabicyclo[2.2.1]heptan-2-yl)isoxazol-5-yl)-3-methylbutanoyl)-N-((S)-1-(4-(4-methylthiazol-5-yl)phenyl)ethyl)pyrrolidine-2-carboxamide]
- Dmax [1]: < 50%
- DC50 [1]: ≥ 1000 nM
- BRM HiBit Degradation Maximum (%) (HiBit-BRM fusion protein): C (“C” indicates maximum degradation < 50%)
- DC50 (HiBit-BRM fusion protein): ≥ 1000 nM

SMILES: Cc1ncsc1-c1ccc([C@H](C)NC(=O)[C@@H]2C[C@@H](O)CN2C(=O)[C@@H](c2cc(N3C[C@@H]4C[C@H]3CN4C(=O)[C@@H]3CCc4sc5nnc(-c6ccccc6O)cc5c4C3)no2)C(C)C)cc1 [Compound 44, (2S,4R)-4-hydroxy-1-((R)-2-(3-((1S,4S)-5-((R)-3-(2-hydroxyphenyl)-5,6,7,8-tetrahydrobenzo[4,5]thieno[2,3-c]pyridazine-6-carbonyl)-2,5-diazabicyclo[2.2.1]heptan-2-yl)isoxazol-5-yl)-3-methylbutanoyl)-N-((S)-1-(4-(4-methylthiazol-5-yl)phenyl)ethyl)pyrrolidine-2-carboxamide]
- Dmax [1]: < 50%
- DC50 [1]: ≥ 1000 nM
- BRM HiBit Degradation Maximum (%) (HiBit-BRM fusion protein): B (“B” indicates maximum degradation ≥ 50%)
- DC50 (HiBit-BRM fusion protein): ≥ 100 nM

SMILES: Cc1ncsc1-c1ccc([C@H](C)NC(=O)[C@@H]2C[C@@H](O)CN2C(=O)[C@@H](c2cc(OCCNC(=O)[C@H]3CCc4sc5nnc(-c6ccccc6O)cc5c4C3)no2)C(C)C)cc1 [Compound 45, (S)-N-(2-((5-((R)-1-((2S,4R)-4-hydroxy-2-(((S)-1-(4-(4-methylthiazol-5-yl)phenyl)ethyl)carbamoyl)pyrrolidin-1-yl)-3-methyl-1-oxobutan-2-yl)isoxazol-3-yl)oxy)ethyl)-3-(2-hydroxyphenyl)-5,6,7,8-tetrahydrobenzo[4,5]thieno[2,3-c]pyridazine-6-carboxamide]
- Dmax [1]: < 50%
- DC50 [1]: ≥ 1000 nM
- BRM HiBit Degradation Maximum (%) (HiBit-BRM fusion protein): B (“B” indicates maximum degradation ≥ 50%)
- DC50 (HiBit-BRM fusion protein): ≥ 100 nM
